Results on 30 compounds are retold here after patent publication US11083725B2 (priority 2014, dated 2021).

One assay relates to NHBE cells. Nature of the assay: cells. In kind it is cell-based, human.
Another assay relates to CA09. Nature of the assay: microbe, parasite or virus in culture. Further details: TCID50 (per mL): unit not given here. In kind it is cell-based, influenza virus H1N1 strain A/CA/04/2009. Conditions: for log reduction at 10 pM / log reduction at 0.0001 µM / log reduction at 0.001 µM / log reduction at 0.01 µM / log reduction at 0.1 µM / log reduction at 1 µM / log reduction at 10 µM / log reduction at 100 µM: NHBE, read-out: TCID50 (per mL); for TCID50 (per mL): Therapeutic Drug Treatment.

Setting [1] is: […], prophylactic schedule, dose response 4 nM to 10 μM, […], read-out: IC50, Prophylactic Treatment, Control.
The mark [2] stands for this setting: Homo sapiens, NHBE, 72 h, read-out: IC50, Prophylactic Treatment, Control.
Where [3] appears, read: Homo sapiens, NHBE, read-out: IC50, Prophylactic Treatment, Viral Infected.
[4] abbreviates: […], therapeutic schedule, dose response 4 nM to 10 μM, […], read-out: IC50, Therapeutic Treatment, Control.
Setting [5] is: Homo sapiens, NHBE, 72 h, read-out: IC50, Therapeutic Treatment, Control.
Where [6] appears, read: […], dose response 4 nM to 10 μM, […], read-out: IC50, Prophylactic Treatment, Viral Infected.
The mark [7] stands for this setting: read-out: IC50, Prophylactic Treatment, Control.
[8] abbreviates: read-out: IC50, Prophylactic Treatment, Viral Infected.
[9] abbreviates: Homo sapiens, NHBE, 72 h, […], prophylactic schedule, dose response 4 nM to 10 μM, […], read-out: IC50, Prophylactic Treatment, Control.
Where [10] appears, read: […], dose response 4 nM to 10 μM, […], read-out: IC50, Therapeutic Treatment, Viral Infected.

Where two headings read alike, the source gives them in different places.

As for `CCCCCCCCCCCCCCOc1ccc(C(=O)O)o1` [TOFA], the IC50 – broadly, the point on the concentration scale where inhibition reaches its midpoint – with NHBE cells (setting [1]) was found to be 4000 nM.
With `NC(=O)N1CCC(CC(=O)N2CCC([C@H]3c4ncc(Br)cc4CCc4cc(Cl)cc(Br)c43)CC2)CC1` [Lonafarnib], the “Cell Death Prophylactic” value in the assay on NHBE cells was “C > V”. Besides, the IC50 with NHBE cells (setting [2]) was found to be 1900 nM. Moreover, in the assay on NHBE cells (setting [3]), the IC50 came out at 1300 nM. Moreover, in the assay on CA09, the log reduction at 10 pM came to 0.04, the log reduction at 0.0001 µM was 0.15, the log reduction at 0.001 µM stood at 0.56 and the log reduction at 0.01 µM is -0.06. In the assay on CA09, the log reduction at 0.1 µM came out at 0.3, the log reduction at 1 µM is 1.16, the log reduction at 10 µM is 0.28 and the log reduction at 100 µM was found to be 1.25.
`CCC(C)(C)C(=O)O[C@H]1C[C@@H](C)C=C2C=C[C@H](C)[C@H](CC[C@@H]3C[C@@H](O)CC(=O)O3)[C@H]21` [SIMVASTATIN]: the half-maximal inhibitory concentration (IC50) with NHBE cells (Homo sapiens, NHBE, 72 h, […], therapeutic schedule, dose response 4 nM to 10 μM, […], read-out: IC50, Therapeutic Treatment, Control) is 5 nM.
For LB 42708, the IC50 in the assay on NHBE cells (setting [4]) amounted to 4.5 nM.
As to `[O]=[V]1(=[O])(=[O])(=[O])[n+]2cccc3ccc4ccc[n+]1c4c32` [BP/(PHEN)], the “Cell Death Prophylactic” value with NHBE cells is “V > C”. Further, the “TCID50 (per mL)” value in the assay with CA09 (Drug Dose 10 pM) is reported as −0.50; in the assay with CA09 (Drug Dose 100 pM), −0.54; in the assay on CA09 (Drug Dose 1 nM), −0.44; in the assay with CA09 (Drug Dose 10 nM), −0.74; in the assay with CA09 (Drug Dose 100 nM) it was −0.13; in the assay with CA09 (Drug Dose 1 μM), −0.32. The “TCID50 (per mL)” value is given as −0.10 in the assay with CA09 (Drug Dose 10 μM) and −0.18 in the assay on CA09 (Drug Dose 100 μM).
As for `CC[C@@H]1/C=C/C=C/C[C@H](C)[C@@H](O)[C@](C)(O)C(=O)[C@H](C)[C@@H](O)[C@H](C)C(=O)[C@H](C)[C@@H](O)[C@H](C)/C=C/C(=O)O[C@H]2[C@@H](C)[C@@H](CC1)O[C@@]1(CC[C@@H](C)C(CC(C)O)O1)[C@@H]2C` (stereo partly drawn) [Oligomycin A], in the assay on NHBE cells, the “Cell Death Prophylactic” value was “C > V” and the “Cell Death Therapeutic” value was “C > V”. Besides, in the assay on CA09, the “Viral Titer Therapeutic” value is reported as “Reduced”, the log reduction at 10 pM came out at 0.92, the log reduction at 0.0001 µM stood at 0.23 and the log reduction at 0.001 µM came out at 0.51. In addition, in the assay on CA09, the log reduction at 0.01 µM was 0.6, the log reduction at 0.1 µM was found to be 0.38, the log reduction at 1 µM stood at 0.77 and the log reduction at 10 µM was found to be 0.66. Also, the log reduction at 100 µM in the assay on CA09 worked out at 0.28.
On to `CCc1c(-c2ccccc2)c(-c2ccccc2)nn1-c1ccccc1-c1cccc(OCC(=O)O)c1` [FABP4 Inhibitor], for which, in the assay on NHBE cells, the “Cell Death Prophylactic” value is “V > C”. Besides, in the assay on NHBE cells (setting [5]), the IC50 amounted to 4000 nM. Further, the “Viral Titer Prophylactic” value in the assay on CA09 was “Reduced”.
OLIGOMYCIN (A SHOWN): the IC50 in the assay on NHBE cells (read-out: IC50, Therapeutic Treatment, Control) was 1000 nM; with NHBE cells (read-out: IC50, Therapeutic Treatment, Viral Infected), 4 nM.
Regarding `CO/C(=C\C(N)=O)[C@H](C)[C@H](/C=C/c1csc(-c2csc([C@@H](C)/C=C/C=C/C(C)C)n2)n1)OC` [Myxothiazol], in the assay on NHBE cells, the “Cell Death Prophylactic” value is “C = V” and the “Cell Death Therapeutic” value is “C > V”.
With `Cn1cncc1[C@@](N)(c1ccc(Cl)cc1)c1ccc2c(c1)c(-c1cccc(Cl)c1)cc(=O)n2C` [Tipifarnib], the 50% inhibitory concentration (IC50) with NHBE cells (setting [2]) amounted to 12 nM. For the same compound, the IC50 in the assay on NHBE cells (setting [5]) amounted to 13 nM. Also, in the assay with NHBE cells (Homo sapiens, NHBE, read-out: IC50, Therapeutic Treatment, Viral Infected), the IC50 was 33 nM. In the assay on CA09, the log reduction at 10 pM is 0.02, the log reduction at 0.0001 µM was 0.73, the log reduction at 0.001 µM came out at 1.04 and the log reduction at 0.01 µM is 0.6. Moreover, in the assay with CA09, the log reduction at 0.1 µM is -0.16, the log reduction at 1 µM worked out at 1.04, the log reduction at 10 µM is 1.4 and the log reduction at 100 µM stood at 0.
For the compound `CC(C)CCN1c2nc(Nc3cc(F)c(O)c(F)c3)ncc2N(C)C(=O)C1C` (stereo not drawn) [BI-D1870], in the assay with NHBE cells, the “Cell Death Prophylactic” value is reported as “C > V”. In the assay with CA09, the “Viral Titer Prophylactic” value is listed as “Reduced”, the log reduction at 10 pM came out at 0.28, the log reduction at 0.0001 µM came out at 1.18 and the log reduction at 0.001 µM amounted to 0.78. For the same compound, in the assay with CA09, the log reduction at 0.01 µM worked out at 0.2, the log reduction at 0.1 µM was determined as 0.99, the log reduction at 1 µM amounted to 0.84 and the log reduction at 10 µM is 0.6. Also, in the assay on CA09, the log reduction at 100 µM came out at 0.65.
As for `CCn1nnc2c(N3CCOCC3)nc(-c3ccc(NC(=O)Nc4ccc(C(=O)N5CCN(C)CC5)cc4)cc3)nc21` [PKI-402], in the assay with NHBE cells, the “Cell Death Prophylactic” value was “C = V”, the “Cell Death Therapeutic” value is recorded as “C = V” and the “NHBE cell survival / cell death after infection” value (“NHBE cell survival / cell death” for short) was “no effect”. Besides, the IC50 in the assay on NHBE cells (setting [6]) is 3000 nM. The IC50 in the assay with NHBE cells (setting [4]) came to 2 nM.
In the case of `CCc1ccc(CCOc2ccc(CC3SC(=O)NC3=O)cc2)nc1` (stereo not drawn) [Pioglitazone], the “Cell Death Prophylactic” value in the assay on NHBE cells was “C > V”. Besides, in the assay with CA09, the log reduction at 10 pM was 0.22, the log reduction at 0.0001 µM amounted to 0.8, the log reduction at 0.001 µM is 0.66 and the log reduction at 0.01 µM was 0.47. In the assay on CA09, the log reduction at 0.1 µM is -0.1, the log reduction at 1 µM amounted to 0.49, the log reduction at 10 µM turned out to be 0.73 and the log reduction at 100 µM is 0.23.
For the compound `N#C/C(=C\c1ccc(O)cc1)C(=O)O` [ALPHA-CYANO-4-HYDROXYCINNAMIC ACID], the IC50 with NHBE cells (setting [1]) is 3000 nM.
`CC(C)c1c(C(=O)Nc2ccccc2)c(-c2ccccc2)c(-c2ccc(F)cc2)n1CC[C@@H](O)C[C@@H](O)CC(=O)O` [ATORVASTATIN CALCIUM]: the IC50 with NHBE cells (setting [7]) and in the assay on NHBE cells (setting [8]) was 3000 nM throughout.
For PF 429242, the IC50 in the assay on NHBE cells (setting [6]) came to 6000 nM.
As for `OO.OO.[K+].[OH-].[V].c1cnc2c(c1)ccc1cccnc12` [BPV(PHEN)], the IC50 in the assay with NHBE cells (setting [4]) stood at 5 nM.
For the compound `NOCC(=O)O`, the IC50 in the assay with NHBE cells (setting [7]) came out at 5000 nM; in the assay with NHBE cells (setting [8]), 10000 nM.
As to `COc1cc(/C=C/C(=O)CC(=O)/C=C/c2ccc(O)c(OC)c2)ccc1O` [CURCUMIN], the IC50 with NHBE cells (setting [9]) is 1 nM.
`O=[N+]([O-])c1ccc(O)c([N+](=O)[O-])c1` [2,4-DINITROPHENOL]: the IC50 was 4000 nM with NHBE cells (setting [10]), 380 nM in the assay on NHBE cells (setting [1]) and 8000 nM with NHBE cells (setting [4]).
Consider `Nc1cc(C(F)(F)F)c(-c2cc(N3CCOCC3)nc(N3CCOCC3)n2)cn1` [NVP-BKM120], for which, in the assay on NHBE cells, the “Cell Death Prophylactic” value is given as “C = V”, the “Cell Death Therapeutic” value is listed as “C = V” and the “NHBE cell survival / cell death” value is given as “no effect”. In the assay on CA09, the log reduction at 10 pM was 0, the log reduction at 0.0001 µM was 0.4, the log reduction at 0.001 µM was 0.76 and the log reduction at 0.01 µM is 0. Also, in the assay with CA09, the log reduction at 0.1 µM was 0.29, the log reduction at 1 µM is -0.08, the log reduction at 10 µM is 0.07 and the log reduction at 100 µM was -0.37.
For `Cc1cc([C@@H](C)Nc2ccccc2C(=O)O)c2nc(N3CCOCC3)cc(=O)n2c1` [AZD-6482], the IC50 in the assay with NHBE cells (setting [9]) was 5000 nM.
As for `CS(=O)(=O)N1CCN(Cc2cc3nc(-c4cccc5[nH]ncc45)nc(N4CCOCC4)c3s2)CC1` [GDC-0941], in the assay on NHBE cells, the “Cell Death Prophylactic” value was “C = V”, the “Cell Death Therapeutic” value is reported as “C = V” and the “NHBE cell survival / cell death” value is on record as “no effect”.
For `O=C(O)Cn1nnc(-c2cc(N3CCC(Oc4cc(F)ccc4Br)CC3)no2)n1` [MK-8245], in the assay with NHBE cells (setting [9]), the IC50 is 5000 nM.
Consider `C=C1C(=O)O[C@H](CCCCCCCC)[C@H]1C(=O)O` [C75], for which, in the assay with NHBE cells, the “Cell Death Prophylactic” value is “C > V” and the “Cell Death Therapeutic” value is reported as “C = V”.
Consider `CC(C)(Oc1ccc(CCNC(=O)c2ccc(Cl)cc2)cc1)C(=O)O` [BEZAFIBRATE], for which the IC50 in the assay on NHBE cells (setting [9]) came out at 7200 nM.
Take `C=C(C)[C@@H]1CC[C@]2(C(=O)O)CC[C@]3(C)[C@H](CC[C@@H]4[C@@]5(C)CC[C@H](O)C(C)(C)[C@@H]5CC[C@]43C)[C@@H]12` [Betulinic Acid]: the IC50 in the assay on NHBE cells (setting [3]) stood at 2000 nM. In the assay on CA09, the log reduction at 10 pM amounted to 0.37, the log reduction at 0.0001 µM was found to be 0.63, the log reduction at 0.001 µM amounted to 0.51 and the log reduction at 0.01 µM is 0.55. In the assay on CA09, the log reduction at 0.1 µM came to 0.31, the log reduction at 1 µM was found to be 0.96, the log reduction at 10 µM is 0.61 and the log reduction at 100 µM came out at 0.59.
Regarding `O=C([O-])CC(O)C(=O)[O-].[Na+].[Na+]` (racemic) [DISODIUM DL-MALATE HYDRATE], the IC50 in the assay on NHBE cells (setting [10]) stood at 7000 nM; with NHBE cells (setting [1]) it was 30 nM.
Regarding `CSCC[C@H](NC(=O)[C@H](Cc1ccccc1)NC[C@@H](NC[C@@H](N)CS)C(C)C)C(=O)O` [FTASE INHIBITOR I], the IC50 was 200 nM with NHBE cells (setting [10]) and 90 nM in the assay on NHBE cells (setting [4]).
Consider `O=C1Nc2ccc3ncsc3c2/C1=C/c1cnc[nH]1` [IMIDAZOLO-OXINDOLE PKR INHIBITOR C16], for which the IC50 in the assay with NHBE cells (setting [4]) turned out to be 70 nM.
